Source: the supplement of paper PMC10307832

Key:
Experiment in all cases: relative viability (nuclei count vs DMSO), 5 days (fraction); higher = more cells survive
Mirin + OSI-027 = compound: N=C1NC(=O)/C(=C/c2ccc(O)cc2)S1 [Mirin] + COc1cccc2cc(-c3nc([C@H]4CC[C@H](C(=O)O)CC4)n4ncnc(N)c34)[nH]c12 [OSI-027] (partner 0.5 µM)
Method in brief: (§1)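 Dosing by pin tool came one day after lung cancer cell lines were seeded in 1536-well plates, using either one drug or a fixed anchor-drug dose plus five library-drug doses (not always all listed) in √10 steps. After 5 days, nuclei were counted on 4× images. Relative viability is treated-well nuclei count divided by vehicle-well nuclei count, and values are medians of duplicate plates.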

[1] = compound: CCC1=CN=CN=C1N2CCN(CC2)CC3=NC4=C(N3)C=C(C=C4)C(F)(F)F + CCNC(=O)c1noc(-c2cc(C(C)C)c(O)cc2O)c1-c1ccc(CN2CCOCC2)cc1 [Luminespib] (partner 0.01 µM)
Method in brief: as §1

[2] = compound: CCn1c(-c2nonc2N)nc2cnc(Oc3cccc(NC(=O)c4ccc(OCCN5CCOCC5)cc4)c3)cc21 + CC1(C)CCC(c2ccc(Cl)cc2)=C(CN2CCN(c3ccc(C(=O)NS(=O)(=O)c4ccc(N[C@H](CCN5CCOCC5)CSc5ccccc5)c(S(=O)(=O)C(F)(F)F)c4)cc3)CC2)C1 [Navitoclax] (partner 0.5 µM)
Method in brief: as §1

[3] = compound: CCC1=CN=CN=C1N2CCN(CC2)CC3=NC4=C(N3)C=C(C=C4)C(F)(F)F + CS(=O)(=O)CCNCc1ccc(-c2ccc3ncnc(Nc4ccc(OCc5cccc(F)c5)c(Cl)c4)c3c2)o1 [Lapatinib] (partner 2 µM)
Method in brief: as §1

Row | Cell Line | relative viability (Mirin + OSI-027; first compound 0.25 µM) | relative viability (Mirin + OSI-027; first compound 0.7906 µM) | relative viability (Mirin + OSI-027; first compound 2.5 µM) | relative viability (Mirin + OSI-027; first compound 7.906 µM) | relative viability (Mirin + OSI-027; first compound 25 µM) | relative viability ([1]; first compound 0.04 µM) | relative viability ([1]; first compound 0.1265 µM) | relative viability ([1]; first compound 0.4 µM) | relative viability ([1]; first compound 4 µM) | relative viability ([2]; first compound 0.04 µM) | relative viability ([2]; first compound 0.1265 µM) | relative viability ([2]; first compound 0.4 µM) | relative viability ([2]; first compound 1.265 µM) | relative viability ([2]; first compound 4 µM) | relative viability ([3]; first compound 0.04 µM) | relative viability ([3]; first compound 0.1265 µM) | relative viability ([3]; first compound 0.4 µM) | relative viability ([3]; first compound 4 µM) | relative viability ([1]; first compound 1.265 µM) | relative viability ([3]; first compound 1.265 µM)
1 | NCI-H2405 | 0.625 | 0.612 | 0.585 | 0.627 | 0.508 | 0.684 | 0.704 | 0.657 | 0.794 | 1.16 | 0.361 | 0.367 | 0.183 | 0.144 | 1.04 | 1.17 | 1.11 | 1.2 |  | 
2 | LXF-289 | 0.79 | 0.701 | 0.764 | 0.715 | 0.763 | 0.701 | 0.64 | 0.685 | 0.676 | 1.05 | 1.05 | 1.09 | 0.991 | 1.06 | 1 | 0.853 | 0.845 | 0.899 | 0.63 | 0.974
3 | NCI-H1793 | 0.289 |  | 0.335 | 0.286 | 0.259 | 0.152 | 0.311 | 0.171 | 0.165 | 0.315 | 0.38 | 0.305 | 0.191 | 0.238 | 0.581 | 0.652 | 0.534 | 0.635 |  | 
4 | LU99A | 0.284 | 0.288 | 0.299 | 0.288 | 0.278 | 0.247 | 0.227 | 0.309 | 0.229 | 0.98 | 0.82 | 0.841 | 0.849 | 0.741 | 0.964 | 0.989 | 0.95 | 0.948 | 0.22 | 0.926
5 | PC-3 [JPC-3] | 0.797 | 0.739 | 0.774 | 0.669 | 0.753 | 0.681 | 0.733 | 0.668 | 0.618 | 0.846 | 0.814 | 0.801 | 0.866 | 0.779 | 0.473 | 0.425 | 0.374 | 0.523 | 0.71 | 0.441
6 | NCI-H2085 | 0.873 | 0.674 | 0.748 | 0.603 | 0.584 | 0.442 | 0.481 | 0.421 | 0.356 | 1.39 | 1.08 | 1.02 | 0.937 | 1.01 | 0.713 | 0.704 | 0.797 | 0.784 | 0.387 | 0.571
7 | NCI-H2170 | 0.716 | 0.642 | 0.784 | 0.653 | 0.787 | 0.577 | 0.6 | 0.712 | 0.823 | 0.392 | 0.602 | 0.539 | 0.626 | 0.633 | 0.277 | 0.263 | 0.267 | 0.296 | 0.748 | 0.27
8 | NCI-H1395 | 0.616 | 0.618 | 0.705 | 0.61 | 0.564 | 0.624 | 0.775 | 0.66 | 0.619 | 1.19 | 1.02 | 0.982 | 0.534 | 0.729 | 0.929 | 0.938 | 1.04 | 1.05 | 0.651 | 0.957
9 | NCI-H2228 | 0.57 | 0.44 | 0.515 | 0.575 | 0.538 | 0.131 | 0.132 | 0.131 | 0.175 | 0.759 | 0.841 | 1.07 | 0.927 | 0.833 | 0.949 | 1.11 | 0.79 | 1.06 | 0.144 | 1.14
10 | H3255 | 0.558 | 0.536 | 0.636 | 0.475 | 0.616 | 0.785 | 0.853 | 0.72 | 0.859 | 0.675 | 0.551 | 0.454 | 0.329 | 0.35 | 0.241 | 0.238 | 0.218 | 0.246 | 0.619 | 0.234
11 | HCC-15 | 0.81 | 0.557 | 0.614 | 0.585 | 0.466 | 0.308 | 0.299 | 0.27 | 0.406 | 0.876 | 0.636 | 0.693 | 0.586 | 0.708 | 0.847 | 0.814 | 0.839 | 0.865 | 0.299 | 0.828
12 | NCI-H727 | 0.833 | 0.596 | 0.529 | 0.586 | 0.877 | 0.423 | 0.362 | 0.306 | 0.426 | 0.476 | 0.564 | 0.46 | 0.441 | 0.382 | 0.82 | 0.799 | 0.802 | 0.741 |  | 
13 | NCI-H2009 | 0.646 | 0.662 | 0.706 | 0.413 | 0.522 | 1.1 | 0.966 | 1.02 | 0.87 | 1.09 | 0.971 | 0.999 | 0.561 | 0.384 | 1.07 | 1 | 0.894 | 0.808 | 1.06 | 0.715
14 | HCC-44 | 0.441 | 0.491 | 0.483 | 0.428 | 0.485 | 1.02 | 1.01 | 1.03 | 1.07 | 0.944 | 1.07 | 1.14 | 1 | 0.963 | 0.932 | 0.956 | 0.975 | 0.85 | 0.88 | 1.05
15 | COR-L23 | 0.803 | 0.816 | 0.761 | 0.69 | 0.728 | 0.717 | 0.629 | 0.641 | 0.545 | 1.04 | 0.817 | 0.59 | 0.172 | 0.157 | 0.979 | 0.914 | 0.74 | 0.92 | 0.654 | 0.781
16 | EMC-BAC-2 | 0.389 | 0.378 | 0.337 | 0.307 | 0.312 | 1.24 | 1.19 | 1.2 | 1.14 | 1.44 | 1.2 | 1.18 | 1.16 | 1.19 | 0.889 | 0.864 | 0.86 | 0.982 |  | 0.743
